The results in this text go back to US8252832B2, “Kinesin inhibitors as cancer therapeutics” (Novartis AG, priority 2007, dated 2012).

One assay relates to KB8.5. As to the kind of experiment: CellTiter-Glo proliferation, 72 hours. The class given is cell-based. To be noted: Homo sapiens; Epidermoid, KB8.5, 72 hours.
Another assay has as its system Colo-205. As to the kind of experiment: LDH release assay. The class given is cell-based. Particulars: Homo sapiens. An excerpt:
Identification of tumor types that are the most sensitive to the KSP inhibitors of the present invention can be accomplished using an unbiased approach that uses several cell-based assays. The assays chosen were as follows: • CellTiter-Glo®. This is an assay designed to measure ATP concentration in a cell culture, and can be correlated to cell number. Briefly CellTiter-Glo® (Promega Corporation) is a homogeneous method using the single CellTiter-Glo® reagent to detect ATP wherein ATP in the assay drives the activity of a thermostable luciferase to create a luminescent signal which can then be measured and correlated with the number of viable cells. Briefly, for adherent cells, 1,000 to 5,000 cells/well were plated in 96-well plates (100 μl/well) and let to adhere for 24 hours before being treated with drug. For non-adherent cells, 1,000 to 10,000 cells/well were plated in 96-well plates (100 μl/well) and immediately treated with drug. Drug dilutions were prepared in DMSO at 1000 times the final concentration. These dilutions were then diluted 1/100 in growth media before being added to the cells (11 μl/well) to achieve the desired final concentration. After 48 h in a 37° C. tissue culture incubator, the plates were processed for the CellTiter-Glo®assay according to the manufacturer's instructions. Protocol for a 72 hour cell proliferation assay: The 72 hour assay was performed the same way as the 48 hour assay except for the following modifications: For adherent cells, 500 to 5,000 cells/well were plated in 96-well plates (90 μl/well cell growth media) and left to adhere for 24 hours before being treated with drug. For non-adherent cells, 1,000 to 10,000 cells/well were plated in 96-well plates (90 μl/well cell growth media) and immediately treated with drug. Data values presented represent the concentration of test compound required for a 50% reduction in growth. • LDH release. […] The enzymatic reaction is coupled to a chemical reaction that uses a tetrazolium salt to form a formazan that is red and can be detected by its absorbance at 490 nm. […]

As to `CC(C)(C)[C@H](c1nc(-c2cc(F)ccc2F)cn1Cc1ccccc1)N(CC[C@H](N)CF)C(=O)CO` [Compound IIa], the GI50 – broadly, the concentration that inhibits growth by half – in the assay on KB8.5 was 500 pM. For the same compound, the concentration giving a half-maximal response (EC50) (in general, the concentration at which the effect is half-maximal) with Colo-205 (Colo-205, 48 h) was 110 pM; with Colo-205 (Colo-205, 72 h), 160 pM.
